The target in assay [1] is T1, zebrafish APLNR2a (zfAPLNR2a) (Danio rerio, UniProt Q7SZP9).
T1 construct: the open reading frame (ORF) of each APLNR was amplified from the animal; expressed in transfected cells; host or cells: HEK293
T1 sequence (Q7SZP9 1-362): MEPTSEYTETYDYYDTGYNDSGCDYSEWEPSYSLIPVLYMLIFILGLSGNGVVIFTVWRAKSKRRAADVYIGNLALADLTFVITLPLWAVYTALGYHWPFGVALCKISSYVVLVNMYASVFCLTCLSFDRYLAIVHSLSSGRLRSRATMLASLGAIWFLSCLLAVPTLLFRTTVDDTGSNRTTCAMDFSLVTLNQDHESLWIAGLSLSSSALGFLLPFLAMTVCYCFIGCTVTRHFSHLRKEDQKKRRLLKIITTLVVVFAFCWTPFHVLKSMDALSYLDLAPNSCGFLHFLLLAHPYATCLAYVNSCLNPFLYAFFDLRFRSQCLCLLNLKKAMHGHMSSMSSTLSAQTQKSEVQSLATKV
The assay can be described thus: pGL3-CRE-luciferase reporter assay, HEK293 cells expressing zebrafish APLNR2a. The class given is cell-based. The note with it: SEM. The protocol: (§1) In brief, HEK293 cells were cultured on a six-well plate and grown for 24 h before transfection. The cells were then transfected with a mixture containing 700 ng pGL3-CRE-Luciferase reporter construct (or pGL4-SRE-Luciferase reporter construct), 200 ng of receptor expression plasmid [or empty pcDNA3.1(+) vector as a negative control], and 2 μl jetPRIME (Polyplus Transfection, Illkirch, France) in 200 μl buffer. Twenty-four hour later, HEK293 cells were sub-cultured into a 96-well plate at 37°C for an additional 24 h before treatment. After removal of medium from the 96-well plate, the cells were treated with 100 μl peptide-containing medium (or peptide-free medium) for 6 h in the presence or absence of forskolin (5 μM). Finally, HEK293 cells were lysed with 1 × passive lysis buffer for luciferase assay (Promega, Madison, WI, USA) and the luciferase activity of the cell lysate was measured by a Multimode microplate Reader (TriStar LB 941, EG&G Berthold, Germany) according to the manufacturer's instruction.
(§2) The luciferase activity in each treatment group was expressed as the relative fold changes as compared with their respective control groups. The data were analyzed by non-linear regression followed by one-way ANOVA using GraphPad Prism 5 (GraphPad, San Diego, CA, USA). To validate the results, all experiments were repeated at least twice.
A general note: Reporter assays use an easily measured gene product as a stand-in for the process of interest.

In the next assay the target is T2, zebrafish APLNR2a (Danio rerio, UniProt Q7SZP9).
T2 construct: the open reading frame (ORF) of each APLNR was amplified from the animal; expressed in transfected cells; host or cells: HEK293
T2 sequence (Q7SZP9 1-362): T1 sequence (Q7SZP9 1-362)
The assay can be described thus: Western blot of ERK1/2 phosphorylation, HEK293 cells expressing zebrafish APLNR2a. The settings on record: 100 nM, duplicates, time-dependent (5, 10, 20 min). In kind it is cell-based. The protocol:
HEK293 cells cultured in a 60-mm culture dish (Nunc, Rochester, NY, USA) with 70% confluence were transfected by 1 μg of receptor expression plasmid using jetPRIME reagent according to manufacturers' instruction (Polyplus Transfection, Illkirch, France). […] These cells were washed with cold PBS and lysed by RIPA Lysis Buffer (Roche, Basel, Switzerland) on ice. Western blot was used to examine ERK1/2 phosphorylation and β-actin levels in cell lysates.
A general note: A western blot detects proteins with antibodies after separation by electrophoresis.

Assay [2] concerns tilapia APLNR3b (tiAPLNR3b). The assay can be described thus: pGL3-CRE-luciferase reporter assay, HEK293 cells expressing tilapia APLNR3b. The class given is cell-based, Nile tilapia (Oreochromis niloticus). The note with it: HEK293 cells transiently expressing tiAPLNR3b, inhibition of forskolin (5 μM)-stimulated pGL3-CRE-luciferase activity, 6 h, mean ± S.E. of 3 independent experiments, N = EC50 cannot be evaluated. The protocol: as §1, §2

The next assay concerns zebrafish APLNR3a. The assay can be described thus: Western blot of ERK1/2 phosphorylation, HEK293 cells expressing zebrafish APLNR3a. In kind it is cell-based, zebrafish (Danio rerio). The protocol:
HEK293 cells cultured in a 60-mm culture dish (Nunc, Rochester, NY, USA) with 70% confluence were transfected by 1 μg of receptor expression plasmid using jetPRIME reagent according to manufacturers' instruction (Polyplus Transfection, Illkirch, France). After the 24-h transfection, HEK293 cells were sub-cultured into a 24-well plate, serum-deprived for 12 h and then treated by peptides for 10 min. These cells were washed with cold PBS and lysed by RIPA Lysis Buffer (Roche, Basel, Switzerland) on ice. Western blot was used to examine ERK1/2 phosphorylation and β-actin levels in cell lysates.

Assay [3] deals with zebrafish APLNR3a (zfAPLNR3a). The assay can be described thus: pGL3-CRE-luciferase reporter assay, HEK293 cells expressing zebrafish APLNR3a. In kind it is cell-based, zebrafish (Danio rerio). The note with it: HEK293 cells transiently expressing zfAPLNR3a, inhibition of forskolin (5 μM)-stimulated pGL3-CRE-luciferase activity, 6 h, mean ± S.E. of 3 independent experiments, N = EC50 cannot be evaluated. The protocol:
as §1, §2

The target of assay [4] is T3, zebrafish APLNR2b (zfAPLNR2b) (Danio rerio, UniProt A0T2N3).
T3 construct: the open reading frame (ORF) of each APLNR was amplified from the animal; expressed in transfected cells; host or cells: HEK293
T3 sequence (A0T2N3 1-359): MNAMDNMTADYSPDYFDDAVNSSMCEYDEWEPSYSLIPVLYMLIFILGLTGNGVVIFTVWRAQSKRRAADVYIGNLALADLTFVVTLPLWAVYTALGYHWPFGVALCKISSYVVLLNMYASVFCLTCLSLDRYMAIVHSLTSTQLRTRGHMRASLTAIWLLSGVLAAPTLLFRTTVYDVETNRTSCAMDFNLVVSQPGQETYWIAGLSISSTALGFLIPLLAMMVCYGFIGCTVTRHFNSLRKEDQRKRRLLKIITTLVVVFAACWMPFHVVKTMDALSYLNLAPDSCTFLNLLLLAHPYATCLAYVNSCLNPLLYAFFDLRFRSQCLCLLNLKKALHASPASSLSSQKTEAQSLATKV
The assay can be described thus: pGL3-CRE-luciferase reporter assay, HEK293 cells expressing zebrafish APLNR2b. The class given is cell-based. The settings on record: SEM. The protocol: as §1, §2

Residues, ends and D or L forms follow the SMILES beside them. No end group written: not given here.

As to `CC(C)C[C@H](NC(=O)[C@H](CC(N)=O)NC(=O)[C@H](CC(C)C)NC(=O)[C@H](Cc1ccccc1)NC(=O)[C@H](CC(=O)O)NC(=O)[C@H](Cc1c[nH]cn1)NC(=O)[C@H](CCCCN)NC(=O)[C@@H](NC(=O)CNC(=O)[C@H](Cc1c[nH]cn1)NC(=O)[C@H](CCCCN)NC(=O)[C@@H](N)CC(=O)O)[C@@H](C)O)C(=O)N[C@@H](CCCNC(=N)N)C(=O)N[C@@H](CCCNC(=N)N)C(=O)N[C@@H](CCCCN)C(=O)N[C@@H](Cc1ccc(O)cc1)C(=O)N[C@@H](CCCNC(=N)N)C(=O)N[C@@H](CCCNC(=N)N)C(=O)N[C@@H](Cc1c[nH]cn1)C(=O)N[C@@H](CC(N)=O)C(=O)N[C@@H](CS)C(=O)N1CCC[C@H]1C(=O)N[C@@H](CCCCN)C(=O)N[C@@H](CCCCN)C(=O)N[C@@H](CCCNC(=N)N)C(=O)N[C@@H](CS)C(=O)N[C@@H](CC(C)C)C(=O)N1CCC[C@H]1C(=O)N[C@@H](CC(C)C)C(=O)N[C@@H](Cc1c[nH]cn1)C(=O)N[C@@H](CO)C(=O)N[C@@H](CCCNC(=N)N)C(=O)N[C@H](C(=O)N1CCC[C@H]1C(=O)N[C@@H](Cc1ccccc1)C(=O)N1CCC[C@H]1C(=O)O)C(C)C` [zfELA-36] (H-DKHGTKHDFLNLRRKYRRHNCPKKRCLPLHSRVPFP-OH; N-terminus and C-terminus assumed), the EC50 in assay [1] was 1.61 ± 0.8 nM; in assay [2], over 100 nM; in assay [3], over 100 nM; in assay [4], 1.29 ± 0.9 nM. The “phosphorylation of ERK1/2, Western blot” value at zebrafish APLNR2a is given as “can enhance phosphorylation of ERK1/2”. For the same compound, the “ERK1/2 phosphorylation, Western blot” value in the assay with zebrafish APLNR3a is “not ELA-36”.

Regarding “TPLRQNPARAGRSQRPAGWRRRRPRPRLSHKGPMPF [zfApelin-36]”, the EC50 was 0.89 ± 0.44 nM in assay [1], 0.77 ± 0.24 nM in assay [2] (SEM), 0.45 ± 0.12 nM in assay [3] (SEM) and 0.51 ± 0.31 nM in assay [4]. Also, the “phosphorylation of ERK1/2, Western blot” value at zebrafish APLNR2a is “can enhance phosphorylation of ERK1/2”. The “ERK1/2 phosphorylation, Western blot” value with zebrafish APLNR3a is recorded as “can induce ERK1/2 phosphorylation”.

For orientation: EC50 means the concentration that produces a half-maximal response. A high value points to weaker potency.

(Values after article PMC6315173, “Characterization of the Apelin/Elabela Receptors (APLNR) in Chickens, Turtles, and Zebrafish: Identification of a Novel Apelin-Specific Receptor in Teleosts” (Frontiers in Endocrinology, 2018).)
